The assay deals with T1, PAR1 (Homo sapiens, UniProt P25116).
T1 construct: endogenous in cells; host or cells: washed blood platelets from healthy volunteers
T1 sequence (P25116 22-425): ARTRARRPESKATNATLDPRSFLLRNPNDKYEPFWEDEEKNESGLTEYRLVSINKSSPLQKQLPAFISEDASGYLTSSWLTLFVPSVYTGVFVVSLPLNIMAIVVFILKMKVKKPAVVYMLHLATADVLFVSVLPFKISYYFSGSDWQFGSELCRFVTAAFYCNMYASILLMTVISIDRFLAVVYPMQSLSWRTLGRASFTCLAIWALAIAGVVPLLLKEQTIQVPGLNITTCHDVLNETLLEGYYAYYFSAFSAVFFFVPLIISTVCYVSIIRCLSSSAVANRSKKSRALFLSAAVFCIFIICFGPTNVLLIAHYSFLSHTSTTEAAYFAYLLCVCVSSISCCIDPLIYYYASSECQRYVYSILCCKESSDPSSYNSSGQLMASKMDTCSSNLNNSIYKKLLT
Nature of the assay: Inhibition of PAR1-mediated platelet aggregation induced by TRAP (thrombin receptor-activating peptide), 96-well format. It is filed as cell-based. Particulars: washed platelets from healthy volunteers; TRAP as agonist; AUC of kinetics at 650 nm, 37° C., 20 minutes. The protocol:
PAR1 Determination Method: Inhibition of PAR1-Mediated Platelet Aggregation
The pharmacological testing of the substances took place in platelet aggregation induced by TRAP (thrombin receptor-activating peptide) in 96-well format. For this purpose, blood was taken from healthy volunteers in 20 ml syringes containing 2 ml of 3.13% strength sodium citrate solution. After centrifugation at 150×g for 20 minutes, the platelet-rich plasma (PRP) was separated off and mixed with 1 μl of PGE1 solution (500 μg/ml in ethanol)/ml of PRP. Incubation at RT for 5 minutes was followed by centrifugation at 120×g for 15 minutes to remove the leukocytes. The leukocyte-free PRP was transferred in 5 ml portions into 15 ml PP tubes and centrifuged at 360×g for 15 minutes in order to pellet the platelets. The plasma was then decanted off and the platelet sediment from 5 ml of PRP was resuspended in 1 ml of Tyrode's (120 mM NaCl, 2.6 mM KCl, 12 mM NaHCO3, 0.39 mM NaH2PO4×H2O, 10 mM HEPES, 0.35% BSA (Bovine Serum Albumin), 5.5 mM glucose, pH 7.4) and adjusted with Tyrode's to a platelet count of 3×10^5/microliter (μl). 13 μl of this cell suspension were then mixed with 866 μl of 10 mM CaCl2 solution, and 120 μl thereof were pipetted into each well of a 96-well plate containing 15 μl of the substance to be tested. After incubation at RT in the dark for 30 minutes, 15 μl of a TRAP solution (70-100 μM) were added as agonist, and kinetics were recorded at 650 nm in a SpectraMax 340 at 37° C. for 20 minutes while shaking. The areas under the curves of negative control (Tyrode's/DMSO) and positive control (15 μl of agonist/DMSO) were calculated and the difference was fixed as the 100% value. The substances to be tested were pipetted as serial dilutions in duplicate determination, the AUC was likewise determined for each substance concentration, and the % inhibition of the AUC compared with the control was calculated. On the basis of the % inhibition, the IC50 was calculated by nonlinear regression analysis according to the 4-parameter equation.
On to `O=C1CC2(CCCC2)CC2=C1C(/C=C/c1ccc(-c3cccc(F)c3)cn1)c1c(C(=O)NC3CCCC3)n[nH]c1N2` (stereo not shown) [Example 47], for which the IC50 came out at 1400 nM.

As for `CC1CC(=O)C2=C(C1)Nc1[nH]nc(C(=O)NCC3CC3)c1C2/C=C/c1ccc(-c2cccc(F)c2)cn1` (single isomer, unassigned) [diastereomer 1 from example 13], the IC50 came out at 5120 nM.

For the compound `CC(C)C1CC(=O)C2=C(C1)Nc1[nH]nc(C(=O)NCC3CC3)c1C2/C=C/c1ccc(-c2cccc(F)c2)cn1` (mixture of isomers) [Example 10, 4-{(E)-2-[5-(3-Fluorophenyl)pyridin-2-yl]vinyl}-7-isopropyl-5-oxo-4,5,6,7,8,9-hexahydro-1H-pyrazolo[3,4-b]quinoline-3-cyclopropylmethylcarboxamide], the IC50 stood at 1390 nM.

In turn, `COCCNC(=O)c1n[nH]c2c1C(/C=C/c1ccc(-c3cccc(F)c3)cn1)C1=C(CC3(CCCC3)CC1=O)N2` (stereo not shown) [Example 43] came in with an IC50 of 1200 nM.

In turn, `CC(C)(CO)CNC(=O)c1n[nH]c2c1C(C=Cc1ccc(-c3cccc(F)c3)cn1)C1=C(CC3(CCCC3)CC1=O)N2` (stereo not shown) [Example 31] had an IC50 of 380 nM.

`CC1(CNC(=O)c2n[nH]c3c2C(/C=C/c2ccc(-c4cccc(F)c4)cn2)C2=C(CC4(CCCC4)CC2=O)N3)COC1` (stereo not shown) [Example 54] returned an IC50 of 840 nM.

Compound `O=C1CC2(CCCC2)CC2=C1C(/C=C/c1ccc(-c3cccc(F)c3)cn1)c1c(C(=O)NC[C@H]3C[C@@H](O)C3)n[nH]c1N2` (stereo partly shown) [Example 38] showed an IC50 of 820 nM.

`COCCNC(=O)c1n[nH]c2c1C(/C=C/c1ccc(-c3cccc(F)c3)cn1)C1=C(CC3(CCC3)CC1=O)N2` (stereo not shown) [Example 46] registered an IC50 of 1500 nM.

For the compound `CC(C)(C)CNC(=O)c1n[nH]c2c1C(/C=C/c1ccc(-c3cccc(F)c3)cn1)C1=C(CC(C)(C)CC1=O)N2` (stereo not shown) [Example 15, 4-{(E)-2-[5-(3-Fluorophenyl)pyridin-2-yl]vinyl}-7,7-dimethyl-5-oxo-4,5,6,7,8,9-hexahydro-1H-pyrazolo[3,4-b]quinoline-3-(2,2-dimethylpropyl)carboxamide], the IC50 amounted to 4230 nM. This IC50 lies about 2.8-fold higher than the previous one.

Turning to `O=C1CC2(CCCC2)CC2=C1[C@H](/C=C/c1ccc(-c3cccc(F)c3)cn1)c1c(C(=O)NCC3(CO)CC3)n[nH]c1N2` [Example 35], the IC50 stood at 410 nM.

The compound `CC(C)(CN)CNC(=O)c1n[nH]c2c1C(/C=C/c1ccc(-c3cccc(F)c3)cn1)C1=C(CC3(CCCC3)CC1=O)N2` (stereo not shown) [Example 50] returned an IC50 of 910 nM.

The compound `CN1C2=C(C(=O)CC3(CCCC3)C2)C(/C=C/c2ccc(-c3cccc(F)c3)cn2)c2c(C(=O)NCC(C)(C)C)n[nH]c21` (stereo not shown) [Example 37] showed an IC50 of 710 nM. This IC50 and that of the compound before are within 1.5-fold of each other.

In turn, `O=C1CC2(CCCC2)CC2=C1C(C=Cc1ccc(-c3cccc(F)c3)cn1)c1c(C(=O)NCC3(CO)CCC3)n[nH]c1N2` (stereo not shown) [Example 33] yielded an IC50 of less than 400 nM.

On to `CC(C)NC(=O)c1n[nH]c2c1C(/C=C/c1ccc(-c3cccc(F)c3)cn1)C1=C(CC(C)(C)CC1=O)N2` (stereo not shown) [Example 8, 4-{(E)-2-[5-(3-Fluorophenyl)pyridin-2-yl]vinyl}-7,7-dimethyl-5-oxo-4,5,6,7,8,9-hexahydro-1H-pyrazolo[3,4-b]quinoline-3-isopropylcarboxamide], for which the IC50 is 1880 nM. In other words, the single-digit micromolar range.

For the compound `COC(C)(C)CNC(=O)c1n[nH]c2c1C(C=Cc1ccc(-c3cccc(F)c3)cn1)C1=C(CC3(CCCC3)CC1=O)N2` (stereo not shown) [Example 39], the IC50 is 450 nM.

In turn, `CC(C)(CO)CNC(=O)c1n[nH]c2c1C(C=Cc1ccc(-c3cccc(F)c3)cn1)C1=C(CC3(CCC3)CC1=O)N2` (stereo not shown) [Example 36] came in with an IC50 of 460 nM.

In general, IC50 refers to the concentration that inhibits the measured activity by half.

The record behind these values is US8791133B2, “Pyridylvinylpyrazoloquinolines as PAR1 inhibitors” (Sanofi, priority 2010, dated 2014).
